Laboratory results reported in paper PMC6338836, “Structural basis for prodrug recognition by the SLC15 family of proton-coupled peptide transporters” (Proceedings of the National Academy of Sciences of the …, 2019).
Residues, ends and D or L forms follow the SMILES beside them.

Assays:
PepTSh = assay: IC50 competition assay, PepTSh WT proteoliposomes; assay type: biochemical, Staphylococcus hominis; settings: for recognition: competition with AlaAla: N- or C-terminally blocked peptides
PepTSh Y41A = assay: IC50 competition assay, PepTSh Y41A variant; assay type: biochemical, Staphylococcus hominis; settings: PepTSh Y41 removed (Y41A)
PepTSh Y41F = assay: IC50 competition assay, PepTSh Y41F variant; assay type: biochemical, Staphylococcus hominis; settings: for IC50: PepTSh variant Y41F
PepTSh Y163A = assay: IC50 competition assay, PepTSh Y163A variant; assay type: biochemical, Staphylococcus hominis; settings: PepTSh Y163 removed (Y163A)
PepTSh N167A = assay: IC50 competition assay, PepTSh N167A variant; assay type: biochemical, Staphylococcus hominis
PepTSh N426A = assay: IC50 competition assay, PepTSh N426A variant; assay type: biochemical, Staphylococcus hominis; settings: PepTSh N426 removed (N426A)
PepTSh N426L = assay: IC50 competition assay, PepTSh N426L variant; assay type: biochemical, Staphylococcus hominis; settings: PepTSh N426 replaced with leucine (N426L)
[1] = design: method as in PMID 23264448, PMID 9610386; settings: cited from earlier work
PepTSh Y79F = assay: IC50 competition assay, PepTSh Y79F variant; assay type: biochemical, Staphylococcus hominis
(UniProt Z9YNX0M2M8) = assay: IC50 competition assay, PepTSh WT proteoliposomes; assay type: biochemical, Staphylococcus hominis; settings: competition for dipeptide uptake
PepT1 = test system: PepT1; design: method as in PMID 12649372; settings: cited from earlier work

## CC(C)[C@H](N)C(=O)OCCOCn1cnc2c(=O)[nH]c(N)nc21 [valacyclovir]
PepTSh; competition for dipeptide uptake
  IC50: 7400 µM
PepTSh Y41A
  effect of variant on affinity compared with WT: little effect on the affinity
PepTSh Y41F
  IC50: 1300 µM
PepTSh Y163A
  effect of variant on recognition: abrogated valacyclovir recognition
PepTSh N167A
  effect of variant on affinity / IC50 compared with WT: little effect on the affinity
PepTSh N426A
  effect of variant on affinity compared with WT: improved affinity
PepTSh N426L
  effect of variant on affinity compared with WT: negligible effect
[1]
  oral bioavailability: > 50%

## C[C@H](N)C(=O)N[C@@H](C)C(N)=O [H-AA-NH2] (H-Ala-Ala-NH2)
PepTSh
  recognition: competition with AlaAla: can compete with AlaAla

## C[C@H](N)C(=O)N[C@@H](C)C(=O)N[C@@H](C)C(=O)O [Ala-Ala-Ala, trialanine]
PepTSh Y41F; PepTSh Y41F
  effect of variant on IC50 compared with WT: no effect
PepTSh Y79F; PepTSh variant Y79F
  IC50: 5.3 µM

## CC(=O)N[C@@H](C)C(=O)N[C@@H](C)C(=O)O [Ac-AA-OH] (Ac-Ala-Ala-OH)
PepTSh
  recognition: competition with AlaAla: can no longer bind the

## C[C@H](N)C(=O)N[C@@H](C)C(=O)O [Ala-Ala, dialanine] (H-Ala-Ala-OH)
PepTSh Y41F
  IC50: 866 µM
PepTSh Y79F; PepTSh Y79F
  effect of variant on transport compared with WT: limited effect

## NCC(=O)CCC(=O)O [5-aminolevulinic acid]
(UniProt Z9YNX0M2M8)
  IC50: 10400 µM
PepTSh N167A
  effect of variant on affinity / IC50 compared with WT: unchanged
PepT1
  IC50: 2100 µM

## Nc1nc2c(ncn2COCCO)c(=O)[nH]1 [acyclovir]
[1]
  oral bioavailability: 15%
